For 37 compounds, EC50 results are on record in patent publication US9988379B2, “GPR40 receptor agonist, methods of preparing the same, and pharmaceutical compositions containing the same as an active agent” (LG CHEM, LTD., priority 2012, dated 2018).

T1 sequence (O14842 whole entry): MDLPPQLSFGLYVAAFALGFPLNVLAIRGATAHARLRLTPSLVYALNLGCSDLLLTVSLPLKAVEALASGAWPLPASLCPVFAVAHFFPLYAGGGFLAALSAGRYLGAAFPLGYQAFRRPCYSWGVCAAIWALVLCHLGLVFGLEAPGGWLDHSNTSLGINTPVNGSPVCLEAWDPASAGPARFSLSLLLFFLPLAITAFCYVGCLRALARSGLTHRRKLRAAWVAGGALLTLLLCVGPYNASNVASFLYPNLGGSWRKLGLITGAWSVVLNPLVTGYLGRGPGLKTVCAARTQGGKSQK

This test has as its target T1, human GPR40 (Homo sapiens, UniProt O14842).
T1 construct: expressed in transfected cells; host or cells: CHO-K1
Briefly: Induction of Ca2+ (calcium flux assay) using human GPR40 expression cell line. The test is classed as cell-based. Particulars: read-out: EC0.5. A digest of the protocol:
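CHO-K1 cells stably transfected with human GPR40, plated 24 h, loaded 1 h at 37° C with Calcium 5 dye in HBSS/HEPES pH 7.4. Intracellular calcium change after compound addition read on FlexStation; concentration–response of relative activity used to derive EC0.5.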
On the technique in general: A change in cytosolic calcium serves as a functional read-out for many receptors and channels.
Take `CC#C[C@@H](CC(=O)O)c1ccc(OCc2cccc3c2cnn3Cc2ccc(F)cc2)cc1` [Example 71, (S)-3-{4-[1-(4-fluoro-benzyl)-1H-indazol-4-ylmethoxy]-phenyl}-hex-4-ynoic acid]: the EC50 was 20 nM.

With `COC(CC(=O)O)c1ccc(OCc2ccc3c(cnn3Cc3ccccc3)c2)cc1` (stereo not shown) [Example 155, 3-[4-(1-benzyl-1H-indazol-5-ylmethoxy)-phenyl]-3-methoxy-propanoic acid], the EC50 fell in the range of 50 to 500 nM.

Turning to `O=C(O)CCc1ccc(NCc2ccc3c(Cl)c(Cl)n(Cc4ccccc4)c3c2)cc1` [Example 6, 3-{4-[(1-benzyl-2,3-dichloro-1H-indol-6-ylmethyl)-amino]-phenyl}-propanoic acid], the EC50 was determined as 100 nM.

On to `CC#C[C@@H](CC(=O)O)c1ccc(OCc2ccnc3c2ccn3CC(C)C)cc1` [Example 204, (S)-3-[4-(1-isobutyl-1H-pyrrolo[2,3-b]pyridin-4-ylmethoxy)-phenyl]-hex-4-ynoic acid], for which the EC50 was found to be 9 nM.

Take `CC#C[C@@H](CC(=O)O)c1ccc(OCc2ccc3cnn(Cc4ncccn4)c3c2)cc1` [Example 68, (S)-3-[4-(1-pyrimidin-2-ylmethyl-1H-indazol-6-ylmethoxy)-phenyl}-hex-4-ynoic acid]: the EC50 was in the range of 50 to 500 nM.

As to `O=C(O)CCc1ccc(OCc2ccc3cnn(CC4CCCC4)c3c2)cc1F` [Example 107, 3-[4-(1-cyclopentylmethyl-1H-indazol-6-ylmethoxy)-2-fluoro-phenyl]-propanoic acid], the EC50 was 200 nM.

As to `CC#C[C@@H](CC(=O)O)c1ccc(OCc2ccc3ccn(Cc4cccc(COC)c4)c3c2C)cc1` [Example 30, (S)-3-{4-[1-(3-methoxymethyl-benzyl)-7-methyl-1H-indol-6-ylmethoxy]-phenyl}-hex-4-ynoic acid], the EC50 worked out at 40 nM.

For the compound `CC#C[C@@H](CC(=O)O)c1ccc(OCc2ccc3c(cnn3CCC(C)C)c2)cc1` [Example 136, (S)-3-{4-[1-(3-methyl-butyl)-1H-indazol-5-ylmethoxy]-phenyl}-hex-4-ynoic acid], the EC50 was 1 to 50 nM.

On to `O=C(O)CC1COc2cc(OCc3ccc4c(Cl)cn(Cc5ccccc5)c4c3)ccc21` (stereo not shown) [Example 12, [6-(1-benzyl-3-chloro-1H-indol-6-ylmethoxy)-2,3-dihydro-benzofuran-3-yl]-acetic acid], for which the EC50 is 160 nM.

Turning to `CC#C[C@@H](CC(=O)O)c1ccc(OCc2ccc3ccn(Cc4ccc(Cl)nc4)c3c2C)cc1` [Example 46, (S)-3-{4-[1-(6-chloro-pyridin-3-ylmethyl)-7-methyl-1H-indol-6-ylmethoxy]-phenyl}-hex-4-ynoic acid], the EC50 was in the range of 1 to 50 nM.

Take `CC#C[C@@H](CC(=O)O)c1ccc(OCc2cccc3c2c(C)nn3CCCC)cc1` [Example 205, (S)-3-[4-(1-butyl-3-methyl-1H-indazol-4-ylmethoxy)-phenyl]-hex-4-ynoic acid]: the EC50 is 16 nM.

Turning to `CC#C[C@@H](CC(=O)O)c1ccc(OCc2cccc3c(Br)nn(C)c23)cc1` [Example 195, (S)-3-[4-(3-bromo-1-methyl-1H-indazol-7-ylmethoxy)-phenyl]-hex-4-ynoic acid], the EC50 stood at 6 nM.

Turning to `CC#C[C@@H](CC(=O)O)c1ccc(OCc2ccc3c(c2)n(C)c(=O)n3Cc2ccccc2)cc1` [Example 161, (S)-3-[4-(1-benzyl-3-methyl-2-oxo-2,3-dihydro-1H-benzoimidazol-5-ylmethoxy)-phenyl]-hex-4-ynoic acid], the EC50 worked out at 5 nM.

For the compound `CC(C)Cn1ccc2ccc(COc3ccc([C@H](CC(=O)O)c4ccon4)cc3)nc21` [Example 98, (S)-3-[4-(1-isobutyl-1H-pyrrolo[2,3-b]pyridin-6-ylmethoxy)-phenyl]-3-isoxazol-3-yl-propanoic acid], the EC50 fell in the range of 1 to 50 nM.

On to `CC#C[C@@H](CC(=O)O)c1ccc(OCc2cccc3nn(Cc4ccccc4)cc23)cc1` [Example 47, (S)-3-[4-(2-benzyl-2H-indazol-4-ylmethoxy)-phenyl]-hex-4-ynoic acid], for which the EC50 is 1 to 50 nM.

As for `O=C(O)C[C@@H](c1ccc(OCc2ccc3ccn(Cc4ccccc4)c3n2)cc1)c1ccon1` [Example 91, (S)-3-[4-(1-benzyl-1H-pyrrolo[2,3-b]pyridin-6-ylmethoxy)-phenyl]-3-isoxazol-3-yl-propanoic acid], the EC50 was determined as 30 nM.

Regarding `CC#C[C@@H](CC(=O)O)c1ccc(OCc2cccc3c2cnn3C(C)C)cc1` [Example 190, (S)-3-[4-(1-isopropyl-1H-indazol-4-ylmethoxy)-phenyl]-hex-4-ynoic acid], the EC50 amounted to 40 nM.

As for `CC(C)Cn1cc2ccc(COc3ccc([C@H](CC(=O)O)c4ccon4)cc3)cc2n1` [Example 88, (S)-3-[4-(2-isobutyl-2H-indazol-6-ylmethoxy)-phenyl]-3-isoxazol-3-yl-propanoic acid], the EC50 turned out to be 400 nM.

For the compound `O=C(O)CCc1ccc(NCc2ccc3ccn(-c4ccc(F)cc4)c3c2Cl)cc1` [Example 9, 3-(4-{[7-chloro-1-(4-fluoro-phenyl)-1H-indol-6-ylmethyl]-amino}-phenyl)-propanoic acid], the EC50 was found to be 300 nM.

In the case of `CC#C[C@@H](CC(=O)O)c1ccc(OCc2ccc3c(Cn4cccn4)nn(CC(C)C)c3c2C)cc1` [Example 228, (S)-3-[4-(1-isobutyl-7-methyl-3-pyrazol-1-ylmethyl-1H-indazol-6-ylmethoxy)-phenyl]-hex-4-ynoic acid], the EC50 lay in the range of 1 to 50 nM.

Turning to `O=C(O)C[C@@H](c1ccc(OCc2ccc3cnn(CC4CCCC4)c3c2)cc1)c1ccon1` [Example 103, (S)-3-[4-(1-cyclopentylmethyl-1H-indazol-6-ylmethoxy)-phenyl]-3-isoxazol-3-yl-propanoic acid], the EC50 stood at 10 nM.

Turning to `CC#C[C@@H](CC(=O)O)c1ccc(OCc2cc(C)c3nn(CC(C)C)cc3c2)cc1` [Example 140, (S)-3-[4-(2-isobutyl-7-methyl-2H-indazol-5-ylmethoxy)-phenyl]-hex-4-ynoic acid], the EC50 was 4 nM.

On to `CC#C[C@@H](CC(=O)O)c1ccc(OCc2ccc3ccn(Cc4csc(C)n4)c3c2C)cc1` [Example 57, (S)-3-{4-[7-methyl-1-(2-methyl-thiazol-4-ylmethyl)-1H-indol-6-ylmethoxy]-phenyl}-hex-4-ynoic acid], for which the EC50 was in the range of 1 to 50 nM.

Take `CC#C[C@@H](CC(=O)O)c1ccc(OCc2ccc3cnn(C4CCCC4)c3c2)cc1` [Example 172, (S)-3-[4-(1-cyclopentyl-1H-indazol-6-ylmethoxy)-phenyl]-hex-4-ynoic acid]: the EC50 was 1 to 50 nM.

Take `CC#C[C@@H](CC(=O)O)c1ccc(OCc2ccc3ccn(Cc4ccc(OC)cc4)c3c2C)cc1` [Example 28, (S)-3-{4-[1-(4-methoxy-benzyl)-7-methyl-1H-indol-6-ylmethoxy]-phenyl}-hex-4-ynoic acid]: the EC50 worked out at 10 nM.

As for `O=C(O)CC1COc2cc(OCc3ccc4cn(Cc5ccccc5)nc4c3)ccc21` (stereo not shown) [Example 113, [6-(2-benzyl-2H-indazol-6-ylmethoxy)-2,3-dihydro-benzofuran-3-yl]-acetic acid], the EC50 worked out at 9100 nM.

`CC#C[C@@H](CC(=O)O)c1ccc(OCc2ccc3ccn(Cc4ccccc4Cl)c3c2C)cc1` [Example 38, (S)-3-{4-[1-(2-chloro-benzyl)-7-methyl-1H-indol-6-ylmethoxy]-phenyl}-hex-4-ynoic acid]: the EC50 came to 90 nM.

Turning to `CC#C[C@@H](CC(=O)O)c1ccc(OCc2ccc3c(cnn3Cc3ccccc3)c2)cc1` [Example 111, (S)-3-[4-(1-benzyl-1H-indazol-5-ylmethoxy)-phenyl]-hex-4-ynoic acid], the EC50 fell in the range of 1 to 50 nM.

Regarding `CC#C[C@@H](CC(=O)O)c1ccc(OCc2cc(C)c3c(cnn3Cc3ccccc3)c2)cc1` [Example 126, (S)-3-[4-(1-benzyl-7-methyl-1H-indazol-5-ylmethoxy)-phenyl]-hex-4-ynoic acid], the EC50 was in the range of 1 to 50 nM.

In the case of `CC#C[C@@H](CC(=O)O)c1ccc(OCc2cccc3c2c(F)nn3CC2CC2)cc1` [Example 200, (S)-3-[4-(1-cyclopropylmethyl-3-fluoro-1H-indazol-4-ylmethoxy)-phenyl]-hex-4-ynoic acid], the EC50 was found to be 9 nM.

`CC#C[C@@H](CC(=O)O)c1ccc(OCc2ccc3c(c2)nnn3Cc2ccccc2)cc1` [Example 124, (S)-3-[4-(1-benzyl-1H-benzotriazol-5-ylmethoxy)-phenyl]-hex-4-ynoic acid]: the EC50 amounted to 50 nM.

On to `CC#C[C@@H](CC(=O)O)c1ccc(OCc2cc3c(cnn3Cc3ccccc3)cc2F)cc1` [Example 122, (S)-3-[4-(1-benzyl-5-fluoro-1H-indazol-6-ylmethoxy)-phenyl]-hex-4-ynoic acid], for which the EC50 was in the range of 1 to 50 nM.

As to `CC#C[C@@H](CC(=O)O)c1ccc(OCc2ccc3ccn(Cc4cc(F)cc(F)c4)c3c2C)cc1` [Example 52, (S)-3-{4-[1-(3,5-difluoro-benzyl)-7-methyl-1H-indol-6-ylmethoxy]-phenyl}-hex-4-ynoic acid], the EC50 lay within 50 to 500 nM.

As to `CC#C[C@@H](CC(=O)O)c1ccc(OCc2ccc3cnn(C(C)C)c3c2)cc1` [Example 180, (S)-3-[4-(1-isopropyl-1H-indazol-6-ylmethoxy)-phenyl]-hex-4-ynoic acid], the EC50 was in the range of 1 to 50 nM.

Regarding `O=C(O)CC1COc2cc(OCc3ccc4ccn(Cc5ccccc5)c4n3)ccc21` (stereo not shown) [Example 121, [6-(1-benzyl-1H-pyrrolo[2,3-b]pyridin-6-ylmethoxy)-2,3-dihydro-benzofuran-3-yl]-acetic acid], the EC50 worked out at 300 nM.

Turning to `Cc1c(COc2ccc(CCC(=O)O)cc2)ccc2ccn(-c3ccc(F)cc3)c12` [Example 14, 3-{4-[1-(4-fluoro-phenyl)-7-methyl-1H-indol-6-ylmethoxy]-phenyl}-propanoic acid], the EC50 was found to be 30 nM.

Consider `CC#C[C@@H](CC(=O)O)c1ccc(OCc2ccc3c(cnn3CC3CCCC3)c2)cc1` [Example 163, (S)-3-[4-(1-cyclopentylmethyl-1H-indazol-5-ylmethoxy)-phenyl]-hex-4-ynoic acid], for which the EC50 lay within 1 to 50 nM.
